This note sets out measurements from US20250120961A1, “P53 MODULATORS” (Nested Therapeutics, Inc., priority 2023, published 2025).

Each structure is given as a SMILES string.

The first assay deals with His-tagged p53-Y220C DNA binding domain (Homo sapiens, UniProt P04637, Y220C). The experiment in a line: Biochemical p53-Y220C and DNA binding assay (HTRF). To be noted: bound printed in the heading for the reference compound; read-out: HTRF IP. The source says: Biological Example 1. Biochemical p53-Y220C and DNA Binding Assay
The compounds of this invention can bind to p53-Y220C and increase the ability of the mutant p53 to bind to DNA at higher temperatures. His-tagged p53-Y220C DNA binding domain containing amino acid 94-312 is used to measure DNA binding activities in vitro with the sequence described below. (SEQ ID NO: 1: […]. Biotin labeled double strand DNA (dsDNA) containing consensus p53 binding sequence (SEQ ID NO: 2: Forward: 5′-(biotin)-[…]-3′; Reverse: 5′-(biotin)-[…]-3′) is used to measure protein-DNA binding activities. Compounds, His-tagged p53-Y220C DBD proteins (100 nM), and biotinylated dsDNA (200 nM) were mixed in ice-cold assay buffer containing DPBS, 20 mM NaCl, and 0.5% BAS, and incubated at 4° C. overnight in 384-well plate. Plates were transferred to incubator at 27 to 29° C. with constant shaking for 60 minutes. Equal volume of Homogeneous Time-Resolved Fluorescence (HTRF) dyes containing mAb anti-6HIS Tb cryptate gold and d2 labeled streptavidin in the assay buffer was added to each well and incubated at 27 to 29° C. with constant shaking for 60 minutes. The plate was read using Envision multimode plate reader. Reference compound 1 was used as high control and DMSO was used as low control. The percentage activation (A %) of protein-DNA binding by compounds was normalized by setting up high control (reference compound) as […] and low control (DMSO) as 0% (A %=(HTRF ratio of compound-HTRF ratio of low control)/(HTRF ratio of high control-HTRF ratio of low control)*500). 10 points dose titration curves for each compound were analyzed by 4 parameter curve fit and inflection point (IP) was reported. Reference compound 1 is shown below Table 1. Compounds of the invention are active in the HTRF assay. Data in Table 1 collected using Biological Example 1.
Consider `CN1CC[C@@H](Nc2cccc3c2cc(-c2noc(CNC(=O)c4cnn(C(C)(C)C)c4)n2)n3CC(F)(F)F)[C@@H](F)C1` [Reference Compound 1, reference compound], for which the EC50 was below 100 nM.

The assay is the same for the next values; noted with them: inflection point of 10 points dose titration, 4 parameter curve fit; p53-Y220C DBD 100 nM, biotinylated dsDNA 200 nM, 27 to 29° C.; read-out: HTRF IP.
Consider `CN1CC[C@@H](Nc2cccc3c2cc(/C=N\Oc2ccccc2)n3CC(F)(F)F)[C@@H](F)C1` [Example 2-5, (Z)-4-(((3S,4R)-3-fluoro-1-methylpiperidin-4-yl)amino)-1-(2,2,2-trifluoroethyl)-1H-indole-2-carbaldehyde O-phenyl oxime], for which the EC50 is above 1000 nM.
For `OC(/C=C/c1sc2c(N[C@@H]3CNC[C@@H]3F)cccc2c1CC(F)(F)F)c1cc(Cl)n[nH]1` (stereo partly drawn) [Example 5-3, (E)-1-(3-chloro-1H-pyrazol-5-yl)-3-(7-(((3R,4S)-4-fluoropyrrolidin-3-yl)amino)-3-(2,2,2-trifluoroethyl)benzo[b]thiophen-2-yl)prop-2-en-1-ol], the EC50 fell in the range of 100 to 1000 nM.
On the same count and under the same terms, the value for `CN1CC[C@@H](Nc2cccc3c(CC(F)(F)F)c(/C=C/C(O)c4cnn(CC5CC5)c4)sc23)[C@@H](F)C1` (stereo partly drawn) [Example 5-7, (E)-1-(1-(cyclopropylmethyl)-1H-pyrazol-4-yl)-3-(7-(((3S,4R)-3-fluoro-1-methylpiperidin-4-yl)amino)-3-(2,2,2-trifluoroethyl)benzo[b]thiophen-2-yl)prop-2-en-1-ol] was 100 to 1000 nM; that for `COc1cccc(CO/N=C\c2sc3c(N[C@@H]4CCN(C)C[C@@H]4F)cccc3c2CC(F)(F)F)n1` [Example 2-28, (Z)-7-(((3S,4R)-3-fluoro-1-methylpiperidin-4-yl)amino)-3-(2,2,2-trifluoroethyl)benzo[b]thiophene-2-carbaldehyde O-((6-methoxypyridin-2-yl)methyl) oxime] was 100 to 1000 nM; that for `CN1CC[C@@H](Nc2cccc3c(CC(F)(F)F)c(/C=C/C(O)c4cccnc4)sc23)[C@@H](F)C1` (stereo partly drawn) [Example 5-4, (E)-3-(7-(((3S,4R)-3-fluoro-1-methylpiperidin-4-yl)amino)-3-(2,2,2-trifluoroethyl)benzo[b]thiophen-2-yl)-1-(pyridin-3-yl)prop-2-en-1-ol] was 100 to 1000 nM.
On the same count and under the same terms, the value for `CC[C@H](CO)O/N=C/c1sc2c(NC3CNCC3F)cccc2c1CC(F)(F)F` (stereo in doubt) [Example 1-4, (E)-7-(((3S,4R)-4-fluoropyrrolidin-3-yl)amino)-3-(2,2,2-trifluoroethyl)benzo[b]thiophene-2-carbaldehyde O-((R)-1-hydroxybutan-2-yl) oxime] was above 1000 nM; that for `O=c1cccc(C(O)/C=C/c2sc3c(N[C@@H]4CNC[C@@H]4F)cccc3c2CC(F)(F)F)[nH]1` (stereo partly drawn) [Example 5-10, 6-((E)-3-(7-(((3R,4S)-4-fluoropyrrolidin-3-yl)amino)-3-(2,2,2-trifluoroethyl)benzo[b]thiophen-2-yl)-1-hydroxyallyl)pyridin-2(1H)-one] was 100 to 1000 nM.
Regarding `OC(CO/N=C/c1sc2c(N[C@@H]3CNC[C@@H]3F)cccc2c1CC(F)(F)F)Cn1cccn1` (stereo partly drawn) [Example 1-27, (E)-7-(((3R,4S)-4-fluoropyrrolidin-3-yl)amino)-3-(2,2,2-trifluoroethyl)benzo[b]thiophene-2-carbaldehyde O-(2-hydroxy-3-(1H-pyrazol-1-yl)propyl) oxime], the EC50 lay in the range of 100 to 1000 nM.
As to `CN1CC[C@@H](Nc2cccc3c2cc(-c2noc(CNC(=O)c4cnn(C(C)(C)C)c4)n2)n3CC(F)(F)F)[C@@H](F)C1` [Reference Compound 1, reference compound], the EC50 was below 100 nM.
On the same count and under the same terms, the value for `CN1CC[C@@H](Nc2cccc3c(CC(F)(F)F)c(/C=C/C(O)c4cn[nH]c4)sc23)[C@@H](F)C1` (stereo partly drawn) [Example 5-8, (E)-3-(7-(((3S,4R)-3-fluoro-1-methylpiperidin-4-yl)amino)-3-(2,2,2-trifluoroethyl)benzo[b]thiophen-2-yl)-1-(1H-pyrazol-4-yl)prop-2-en-1-ol] was 100 to 1000 nM; that for `COc1cccc(CO/N=C/c2sc3c(N[C@@H]4CCN(C)C[C@@H]4F)cccc3c2CC(F)(F)F)n1` [Example 2-27, (E)-7-(((3S,4R)-3-fluoro-1-methylpiperidin-4-yl)amino)-3-(2,2,2-trifluoroethyl)benzo[b]thiophene-2-carbaldehyde O-((6-methoxypyridin-2-yl)methyl) oxime] was 100 to 1000 nM; that for `CO/N=C/c1sc2c(N[C@@H]3CCN(C)C[C@@H]3F)cccc2c1CC(F)(F)F` [Example 2-14, (E)-7-(((3S,4R)-3-fluoro-1-methylpiperidin-4-yl)amino)-3-(2,2,2-trifluoroethyl)benzo[b]thiophene-2-carbaldehyde O-methyl oxime] was above 1000 nM.
Regarding `CN1CC[C@@H](Nc2cccc3c(SC(F)(F)F)c(/C=N/OCC(C)(C)O)sc23)[C@@H](F)C1` [Example 2-32, (E)-7-(((3S,4R)-3-fluoro-1-methylpiperidin-4-yl)amino)-3-((trifluoromethyl)thio)benzo[b]thiophene-2-carbaldehyde O-(2-hydroxy-2-methylpropyl) oxime], the EC50 lay in the range of 100 to 1000 nM.
Consider `CN1CC[C@@H](Nc2cccc3c(CC(F)(F)F)c(/C=C/CNC(=O)C4CC4)sc23)[C@@H](F)C1` [Example 6-1, N-((E)-3-(7-(((3S,4R)-3-fluoro-1-methylpiperidin-4-yl)amino)-3-(2,2,2-trifluoroethyl)benzo[b]thiophen-2-yl)allyl)cyclopropanecarboxamide], for which the EC50 was in the range of 100 to 1000 nM.
Turning to `CO/N=C/c1cc2c(N[C@@H]3CCN(C)C[C@@H]3F)cccc2n1CC(F)(F)F` [Example 2-2, (E)-4-(((3S,4R)-3-fluoro-1-methylpiperidin-4-yl)amino)-1-(2,2,2-trifluoroethyl)-1H-indole-2-carbaldehyde O-methyl oxime], the EC50 is above 1000 nM.
In the case of `CN1CC[C@@H](Nc2cccc3c2cc(/C=N/Oc2ccccc2)n3CC(F)(F)F)[C@@H](F)C1` [Example 2-6, (E)-4-(((3S,4R)-3-fluoro-1-methylpiperidin-4-yl)amino)-1-(2,2,2-trifluoroethyl)-1H-indole-2-carbaldehyde O-phenyl oxime], the EC50 was above 1000 nM.
In the case of `OC(COCc1ccccc1)CO/N=C/c1sc2c(N[C@@H]3CNC[C@@H]3F)cccc2c1CC(F)(F)F` (stereo partly drawn) [Example 1-34, (E)-7-(((3R,4S)-4-fluoropyrrolidin-3-yl)amino)-3-(2,2,2-trifluoroethyl)benzo[b]thiophene-2-carbaldehyde O-(3-(benzyloxy)-2-hydroxypropyl) oxime], the EC50 was above 1000 nM.
As for `O=c1cccc(CO/N=C/c2sc3c(N[C@@H]4CNC[C@@H]4F)cccc3c2CC(F)(F)F)[nH]1` [Example 2-26, (E)-7-(((3R,4S)-4-fluoropyrrolidin-3-yl)amino)-3-(2,2,2-trifluoroethyl)benzo[b]thiophene-2-carbaldehyde O-((6-oxo-1,6-dihydropyridin-2-yl)methyl) oxime], the EC50 was below 100 nM.
On to `OC(CO/N=C/c1sc2c(N[C@@H]3CNC[C@@H]3F)cccc2c1CC(F)(F)F)C(F)(F)F` (stereo partly drawn) [Example 1-5, (E)-7-(((3R,4S)-4-fluoropyrrolidin-3-yl)amino)-3-(2,2,2-trifluoroethyl)benzo[b]thiophene-2-carbaldehyde O-(3,3,3-trifluoro-2-hydroxypropyl) oxime], for which the EC50 fell in the range of 100 to 1000 nM.
On the same count and under the same terms, the value for `CS(=O)(=O)N1CC(O)C(O/N=C/c2sc3c(N[C@@H]4CNC[C@@H]4F)cccc3c2CC(F)(F)F)C1` (stereo partly drawn) [Example 1-38, (E)-7-(((3R,4S)-4-fluoropyrrolidin-3-yl)amino)-3-(2,2,2-trifluoroethyl)benzo[b]thiophene-2-carbaldehyde O-(4-hydroxy-1-(methylsulfonyl)pyrrolidin-3-yl) oxime] was 100 to 1000 nM.
